Laboratory results as given in the supplement of paper PMC10307832.

Assays:
Test in all cases: relative viability (nuclei count vs DMSO), 5 days (fraction); higher = more cells survive
Neratinib + Navitoclax = compound: CCOc1cc2ncc(C#N)c(Nc3ccc(OCc4ccccn4)c(Cl)c3)c2cc1NC(=O)/C=C/CN(C)C [Neratinib] + CC1(C)CCC(c2ccc(Cl)cc2)=C(CN2CCN(c3ccc(C(=O)NS(=O)(=O)c4ccc(N[C@H](CCN5CCOCC5)CSc5ccccc5)c(S(=O)(=O)C(F)(F)F)c4)cc3)CC2)C1 [Navitoclax] (partner 0.5 µM)
In short: (§1)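 Lung cancer cell lines were pin-tool dosed in 1536-well plates on the day after seeding, with either a lone drug or a fixed anchor-drug dose plus five library-drug doses (not always all listed) in √10 steps. Nuclei were counted on 4× images after 5 days. Relative viability is the ratio of treated-well to vehicle-well nuclei counts, with each value a median of duplicate plates.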

Neratinib + Phenformin = compound: CCOc1cc2ncc(C#N)c(Nc3ccc(OCc4ccccn4)c(Cl)c3)c2cc1NC(=O)/C=C/CN(C)C [Neratinib] + N=C(N)NC(=N)NCCc1ccccc1 [Phenformin] (partner 250 µM)
In short: as §1

Neratinib + Pemetrexed = compound: CCOc1cc2ncc(C#N)c(Nc3ccc(OCc4ccccn4)c(Cl)c3)c2cc1NC(=O)/C=C/CN(C)C [Neratinib] + Nc1nc2[nH]cc(CCc3ccc(C(=O)N[C@@H](CCC(=O)O)C(=O)O)cc3)c2c(=O)[nH]1 [Pemetrexed] (partner 0.2 µM)
In short: as §1

Neratinib + Trametinib = compound: CCOc1cc2ncc(C#N)c(Nc3ccc(OCc4ccccn4)c(Cl)c3)c2cc1NC(=O)/C=C/CN(C)C [Neratinib] + CC(=O)Nc1cccc(-n2c(=O)n(C3CC3)c(=O)c3c(Nc4ccc(I)cc4F)n(C)c(=O)c(C)c32)c1 [Trametinib] (partner 0.02 µM)
In short: as §1

Row | Cell Line | relative viability (Neratinib + Navitoclax; first compound 0.01 µM) | relative viability (Neratinib + Navitoclax; first compound 0.03162 µM) | relative viability (Neratinib + Navitoclax; first compound 0.1 µM) | relative viability (Neratinib + Navitoclax; first compound 0.3162 µM) | relative viability (Neratinib + Navitoclax; first compound 1 µM) | relative viability (Neratinib + Phenformin; first compound 0.01 µM) | relative viability (Neratinib + Phenformin; first compound 0.03162 µM) | relative viability (Neratinib + Phenformin; first compound 0.1 µM) | relative viability (Neratinib + Phenformin; first compound 0.3162 µM) | relative viability (Neratinib + Phenformin; first compound 1 µM) | relative viability (Neratinib + Pemetrexed; first compound 0.01 µM) | relative viability (Neratinib + Pemetrexed; first compound 0.03162 µM) | relative viability (Neratinib + Pemetrexed; first compound 0.1 µM) | relative viability (Neratinib + Pemetrexed; first compound 0.3162 µM) | relative viability (Neratinib + Pemetrexed; first compound 1 µM) | relative viability (Neratinib + Trametinib; first compound 0.01 µM) | relative viability (Neratinib + Trametinib; first compound 0.03162 µM) | relative viability (Neratinib + Trametinib; first compound 0.1 µM) | relative viability (Neratinib + Trametinib; first compound 0.3162 µM) | relative viability (Neratinib + Trametinib; first compound 1 µM)
1 | NCI-H596 | 0.998 | 1.01 | 0.954 | 1.04 | 0.787 | 0.754 | 0.895 | 0.75 | 0.695 | 0.562 | 0.523 | 0.529 | 0.472 | 0.493 | 0.488 | 0.825 | 0.947 | 0.765 | 0.707 | 0.641
2 | SK-LU-1 | 0.842 | 0.979 |  | 0.0386 | 0.523 | 0.584 | 0.515 | 0.521 | 0.381 | 0.25 | 1.01 | 0.999 | 0.932 | 0.917 | 0.49 | 0.517 | 0.58 | 0.457 | 0.442 | 0.344
3 | LK-2 | 0.944 | 0.97 | 0.859 | 0.639 | 0.342 | 0.467 | 0.418 | 0.518 | 0.287 | 0.318 | 0.318 | 0.464 | 0.265 | 0.221 | 0.151 | 0.948 | 0.714 | 0.851 | 0.501 | 0.34
4 | COR-L23 | 1.16 | 1.13 | 1.13 | 0.968 | 0.485 | 0.44 | 0.469 | 0.429 | 0.473 | 0.41 | 0.206 | 0.199 | 0.211 | 0.187 | 0.191 | 0.572 | 0.603 | 0.598 | 0.482 | 0.379
5 | NCI-H661 |  |  |  |  |  | 0.274 | 0.242 | 0.285 | 0.247 | 0.251 | 0.951 | 0.947 | 0.595 | 0.704 | 0.537 | 0.63 | 0.568 | 0.447 | 0.352 | 0.276
6 | NCI-H1648 |  |  |  |  |  |  |  |  |  |  | 0.836 | 0.799 | 0.663 | 0.685 | 0.55 | 0.449 | 0.402 | 0.276 | 0.262 | 0.335
7 | LCLC-103H |  |  |  |  |  | 0.353 | 0.344 | 0.34 | 0.293 | 0.293 | 0.509 | 0.489 | 0.445 | 0.488 | 0.484 | 0.739 | 0.733 | 0.618 | 0.681 | 0.639
8 | ABC-1 |  |  |  |  |  | 0.211 | 0.236 | 0.285 | 0.231 | 0.215 |  |  |  |  |  |  |  |  |  | 
9 | NCI-H358 |  |  |  |  |  | 0.28 | 0.266 | 0.164 | 0.147 | 0.101 | 0.172 | 0.161 | 0.168 | 0.133 | 0.153 | 0.119 | 0.118 | 0.0959 | 0.121 | 0.125
10 | NCI-H1563 |  |  |  |  |  | 0.727 | 0.643 | 0.568 | 0.628 | 0.409 | 0.812 | 0.924 | 0.739 | 0.747 | 0.582 |  |  |  |  | 
11 | EBC-1 | 0.439 | 0.408 | 0.41 | 0.339 | 0.219 |  |  |  |  |  |  |  |  |  |  |  |  |  |  | 
12 | Calu-6 | 0.833 | 0.899 | 0.975 | 0.734 | 0.523 |  |  |  |  |  |  |  |  |  |  |  |  |  |  | 
